{"source": "paper PMC12606464", "about": "“Investigating NFE2L1 activators for targeted protein aggregate clearance: a follow-up study” (RSC Medicinal Chemistry, 2025)", "system": "C. elegans wild-type (N2)", "test": "Acute juglone/paraquat-induced oxidative stress resistance in C. elegans N2", "assay_type": "in vivo, Caenorhabditis elegans", "conditions": "for # deaths/events: over 12 hours; for Median survival: Fig. 5C", "protocol": "Fig. 5 RUN-89 prevents protein aggregation and increases stress resistance in C. elegans. (A) The AM140 strain expressing aggregation-prone Q35-YFP was treated with 50 μM RUN-89 or the vehicle for 6 days, followed by microscopy analysis. Overall, 959 Q35-YFP foci (DMSO = 517; RUN-89 = 442) were identified in 102 animals (DMSO: N = 3 populations, n = 55 animals in total; RUN-89: N = 3 populations, n = 47 animals in total). The two dashed horizontal lines indicate the interquartile range, and the thick horizontal line represents the median. The Kolmogorov–Smirnov test verified a significant reduction of surface and integrated optical density of foci after RUN-89 treatment. (B) Representative images of two animals per treatment condition. Images were taken on the same day, using identical settings for the instruments used. (C) Protective effect of RUN-89 against juglone and paraquat-induced stress. […] The mortality was monitored hourly over a 12 hour period. […] For juglone treatment, 629 animals were examined (DMSO: N = 2 populations of 167 and 152 animals, n = 319 animals in total; RUN-89: N = 2 populations of 141 and 169 animals, n = 310 animals in total). Results were analyzed using the Kaplan–Meier method and are presented as survival percentages with standard errors. The survival curves were compared using the Gehan–Breslow–Wilcoxon test (juglone) and log-rank test (paraquat). (A and C) Detailed results of the analysis are shown in SI Tables S10 and S11. *p < 0.05, ****p < 0.001.\nNext, we examined whether the compound RUN-89 protects animals from oxidative damage/death induced by increased reactive oxygen species (ROS) levels. In worms, the herbicide paraquat and the naturally occurring quinone compound juglone are well-known for inducing oxidative stress.[84] In this experiment, the wild-type (N2) strain was used, and RUN-89 was administered at a concentration of 50 μM for 24 hours. Following this pretreatment, approximately 130 animals were transferred to plates containing either 180 μM juglone or 200 μM paraquat. Worm mortality was monitored over a 12-hour period. […]\n2.13 C. elegans strains and maintenance\nThe animals were kept at 20 °C according to standard cultivation conditions (Biron & […]\n(mgIs72 [rpt-3p::GFP + dpy-5(+)] II) of Caenorhabditis elegans strains and E. coli strain OP50 were obtained from the Caenorhabditis Genetic Centre (CGC, University of Minnesota , http://cbs.umn.edu/cgc/home). […]\nKolmogorov-Smirnov test performed in GraphPad Prism (v 10.6.1).\n2.15 Acute juglone/paraquat-induced oxidative stress resistance in C.\nEggs of the wild-type strain (N2) were placed in liquid S-basal medium supplemented with E. coli OP50 as a food source. Upon reaching the young adult stage, they were exposed to either 50 µM RUN 89 or an equivalent volume of solvent (control group) and incubated at 20 °C for 24 hours. Approximately 130 animals were placed on plates containing either 180 µM juglone or 200 µM paraquat to induce severe oxidative stress .(5, 6) The number of dead animals was recorded each hour throughout the 12-hour experiment. The data were then analyzed using Kaplan-Meier survival analysis, and the results were examined through this method. Su rvival curves were compared via the Gehan-Breslow-Wilcoxon test or the log-rank (Mantel-Cox) test in GraphPad Prism software ( v 10.6.1).", "key": {"[1]": {"conditions": "juglon stress, B = juglon + DMSO, C = juglon + RUN-89"}, "[2]": {"conditions": "paraquat stress, B = paraquat + DMSO, C = paraquat + RUN-89"}}}
{"smiles": "COc1ccc(/C=C2\\CC(NC(=O)C3CCCC3)C/C(=C\\c3ccc(OC)c(OC)c3)C2=O)cc1OC", "note": "(stereo not drawn) [RUN-89]", "values": [{"measurement": "Protection against juglone-induced lethal oxidative stress", "setting": "N2, 50 μM for 24 h, then 180 μM juglone, mortality over 12 h", "result": "significant protective effect"}, {"measurement": "Protection against paraquat-induced lethal oxidative stress", "setting": "N2, 50 μM for 24 h, then 200 μM paraquat, mortality over 12 h", "result": "significant protective effect"}, {"measurement": "Ratio of median survival (reciprocal), juglon + RUN-89 / juglon + DMSO", "setting": "juglon stress", "result": 1.25}, {"measurement": "Ratio of median survival, juglon + DMSO / juglon + RUN-89", "setting": "juglon stress", "result": 0.8}, {"measurement": "# deaths/events", "setting": "juglon stress, 306 subjects at 0 h", "result": 305}, {"measurement": "# at risk", "setting": "juglon stress, 1 hour, 306 at 0 h", "result": 306}, {"measurement": "# at risk", "setting": "juglon stress, 2 hours, 306 at 0 h", "result": 289}, {"measurement": "# at risk", "setting": "juglon stress, 3 hours, 306 at 0 h", "result": 235}, {"measurement": "# at risk", "setting": "juglon stress, 4 hours, 306 at 0 h", "result": 190}, {"measurement": "# at risk", "setting": "juglon stress, 5 hours, 306 at 0 h", "result": 164}, {"measurement": "# at risk", "setting": "juglon stress, 6 hours, 306 at 0 h", "result": 124}, {"measurement": "# at risk", "setting": "juglon stress, 7 hours, 306 at 0 h", "result": 105}, {"measurement": "# at risk", "setting": "juglon stress, 8 hours, 306 at 0 h", "result": 82}, {"measurement": "# at risk", "setting": "juglon stress, 9 hours, 306 at 0 h", "result": 37}, {"measurement": "# at risk", "setting": "juglon stress, 10 hours, 306 at 0 h", "result": 13}, {"measurement": "# at risk", "setting": "juglon stress, 11 hours, 306 at 0 h", "result": 7}, {"measurement": "# at risk", "setting": "juglon stress, 12 hours, 306 at 0 h", "result": 1}, {"measurement": "Median survival", "setting": "juglon stress, juglon + DMSO median 4", "result": 5, "unit": "h"}, {"measurement": "Hazard Ratio (Mantel-Haenszel) B/C", "setting": "[1]", "result": 1.206}, {"measurement": "Hazard Ratio (Mantel-Haenszel) C/B", "setting": "[1]", "result": 0.8295}, {"measurement": "Hazard Ratio (logrank) B/C", "setting": "[1]", "result": 1.141}, {"measurement": "Hazard Ratio (logrank) C/B", "setting": "[1]", "result": 0.8761}, {"measurement": "Ratio of median survival (reciprocal), paraquat + RUN-89 / paraquat + DMSO", "setting": "paraquat stress", "result": 1.4}, {"measurement": "Ratio of median survival, paraquat + DMSO / paraquat + RUN-89", "setting": "paraquat stress", "result": 0.7143}, {"measurement": "# deaths/events", "setting": "paraquat stress, 274 subjects at 0 h", "result": 273}, {"measurement": "# at risk", "setting": "paraquat stress, 1 hour, 274 at 0 h", "result": 274}, {"measurement": "# at risk", "setting": "paraquat stress, 2 hours, 274 at 0 h", "result": 263}, {"measurement": "# at risk", "setting": "paraquat stress, 3 hours, 274 at 0 h", "result": 241}, {"measurement": "# at risk", "setting": "paraquat stress, 4 hours, 274 at 0 h", "result": 216}, {"measurement": "# at risk", "setting": "paraquat stress, 5 hours, 274 at 0 h", "result": 209}, {"measurement": "# at risk", "setting": "paraquat stress, 6 hours, 274 at 0 h", "result": 167}, {"measurement": "# at risk", "setting": "paraquat stress, 7 hours, 274 at 0 h", "result": 148}, {"measurement": "# at risk", "setting": "paraquat stress, 8 hours, 274 at 0 h", "result": 130}, {"measurement": "# at risk", "setting": "paraquat stress, 9 hours, 274 at 0 h", "result": 109}, {"measurement": "# at risk", "setting": "paraquat stress, 10 hours, 274 at 0 h", "result": 84}, {"measurement": "# at risk", "setting": "paraquat stress, 11 hours, 274 at 0 h", "result": 44}, {"measurement": "# at risk", "setting": "paraquat stress, 12 hours, 274 at 0 h", "result": 11}, {"measurement": "Median survival", "setting": "paraquat stress, paraquat + DMSO median 5", "result": 7, "unit": "h"}, {"measurement": "Hazard Ratio (Mantel-Haenszel) B/C", "setting": "[2]", "result": 1.524}, {"measurement": "Hazard Ratio (Mantel-Haenszel) C/B", "setting": "[2]", "result": 0.6563}, {"measurement": "Hazard Ratio (logrank) B/C", "setting": "[2]", "result": 1.357}, {"measurement": "Hazard Ratio (logrank) C/B", "setting": "[2]", "result": 0.7368}]}
